Test: RP, Agilent ZORBAX Eclipse Plus C18, 150 × 2.1 mm, 3.5 µm, 40 °C, 0.3 mL/min, estimated dead time 1.1 min; A: water + 0.1% formic acid; B: acetonitrile + 0.1% formic acid; gradient (min/%B) 0/2 1/2 2/20 16.5/98 22/98
Settings: stereoisomer not certain

Compound	LC retention time [min]
CC(=C(CCO)SSC(CCO)=C(C)N(C=O)Cc1cnc(C)nc1N)N(C=O)Cc1cnc(C)nc1N	4.48
CCOP(=S)(OCC)Oc1ccc([N+](=O)[O-])cc1	14.1
O=C(c1ccccc1)c1ccccc1O	13
CCCCCCCC[N+](CCCCCCCC)(CCCCCCCC)CCCCCCCC	16.2
On1nnc2ccccc21	5.24
C[N+](C)(CCOc1ccccc1)Cc1ccccc1	7.14
COc1cccc(C2(O)CCCCC2C[N+](C)(C)[O-])c1 (stereo not drawn)	6.33
NC(=O)N1c2ccccc2C=Cc2ccc(O)cc21	7.92
CCN(C)C(=O)Oc1cccc(C(C)N(C)C)c1 (stereo not drawn)	6.08
COc1cc(-c2oc3cc(O)cc(O)c3c(=O)c2O)ccc1O	9.42
O=C1CC2(CCCCC2)CO1	9.65
O=C1NC(=O)C(c2ccccc2)(c2ccccc2)N1	9.18
COC1C(OC(C)=O)CC(=O)OC(C)CC=CC=CC(O)C(C)CC(CC=O)C1OC1OC(C)C(OC2CC(C)(O)C(OC(=O)CC(C)C)C(C)O2)C(N(C)C)C1O (stereo not drawn)	8.87
COc1ccc(-c2coc3cc(O)ccc3c2=O)cc1	10.1
CN(CC=CC#CC(C)(C)C)Cc1cccc2ccccc12	9.65
Nc1ncnc2c1ncn2C1OC(CO)C(O)C1O (stereo not drawn)	3.2
CCCCCCCCc1ccc(CCC(N)(CO)CO)cc1	10.2
COc1nc(NC(C)C)nc(NC(C)C)n1	7.39
Nc1cccc2[nH]c(-c3ccccc3)nc12	5.28
Cn1c(N)nc2nc[nH]c2c1=O	2.34
COc1ccc2c3c1OC1C(=O)C=CC4(O)C(C2)N(C)CCC314 (stereo not drawn)	5.37
COc1cc(Cc2c(N)nc(N)[nH]c2=O)cc(OC)c1OC	5.43
c1ccc2[nH]c(-c3cscn3)nc2c1	5.2

Compound	LC retention time [min]
CCCCCCCCCCCC[N+](C)(C)CCCCCCCCCCCC	15.3
CN(C)c1ccc(C(=C2C=CC(N(C)C)C=C2)c2ccccc2)cc1 (stereo not drawn)	9.29
CCCCCCCCCCCCCC(=O)OCC(O)COP(=O)([O-])OCC[N+](C)(C)C (stereo not drawn)	12.7
c1ccc(Nc2ccc(Nc3ccccc3)cc2)cc1	14.5
NC12CC3CC(CC(C3)C1)C2	5.15
c1ccc([P+](c2ccccc2)(c2ccccc2)C2CC2)cc1	7.79
CC(=O)C[P+](c1ccccc1)(c1ccccc1)c1ccccc1	7.28
CC(C)NCC(O)COc1cccc2[nH]ccc12 (stereo not drawn)	5.15
CCP(=O)(CC)CC	5.15
O=C1CN(N=Cc2ccc([N+](=O)[O-])o2)C(=O)N1	6.22
O=c1[nH]c(=S)c2[nH]cnc2[nH]1	4.02
CC(C)[P+](c1ccccc1)(c1ccccc1)c1ccccc1	7.72
CC[N+](CC)(CC)CC	2.28
O=c1[nH]c(=O)c2[nH]cnc2[nH]1	2.43
CC[P+](c1ccccc1)(c1ccccc1)c1ccccc1	7.39
CCCCCCCCCCCCCC[P+](CCCC)(CCCC)CCCC	14.9
CCOC(=O)c1cncn1C(C)c1ccccc1 (stereo not drawn)	8.83
O=P(O)(O)Cc1ccccc1	5.04
CCCCCCCCCC[N+](C)(C)CCCCCCCC	12.4
O=C1c2ccccc2C(=O)C1c1nc2ccccc2cc1O	14.7
O=c1[nH]c2c(c(=O)n1C1CCCCC1)CCC2	9.02
CCCCCCCCCCC(C(=O)c1ccc(OC)c(OC)c1)[N+](C)(C)C (stereo not drawn)	10.9
COC1CC(CC2CCC(C)C(C(C)C(=O)O)O2)OC2(OC(C)(C3CCC(C)(C4OC(C5OC(O)(CO)C(C)CC5C)CC4C)O3)CC2C)C1C (stereo not drawn)	21.2

Compound	LC retention time [min]
CN1C=CN(Cc2ccccc2)C1	4.93
O=C(O)C(c1ccccc1)C1CCCCN1 (stereo not drawn)	4.91
COc1ccc(CCN(C)CCCC(C#N)(c2ccc(OC)c(OC)c2)C(C)C)cc1OC (stereo not drawn)	8.54
CC(C)c1ccc(OP(=O)(Oc2ccc(C(C)C)cc2)Oc2ccc(C(C)C)cc2)cc1	18.9
CCOC(=O)C(C)[P+](c1ccccc1)(c1ccccc1)c1ccccc1 (stereo not drawn)	8.09
CCC(C(N)=O)N1CCCC1=O (stereo not drawn)	5.14
Nc1ccc(S(=O)(=O)Nc2ncccn2)cc1	5.24
O=c1[nH]c2ccccc2s1	7.78
Cc1cc(C)nc(NS(=O)(=O)c2ccc(N)cc2)n1	6.12
S=P(c1ccccc1)(c1ccccc1)c1ccccc1	14.5
CC(N)c1nc2ccccc2s1 (stereo not drawn)	5.16
CCCCCCC[N+](CCCCCCC)(CCCCCCC)CCCCCCC	14.7
CCNCC(O)COc1ccc(CCOC)cc1 (stereo not drawn)	5.42
c1cncc(-c2nc3ccccc3[nH]2)c1	5.16
Nc1ncnc2c1ncn2CCOCP(=O)(O)O	2.12
O=C(c1ccccc1)c1ccc(O)c(O)c1O	9.4
CC(C)c1nc(CN(C)C(=O)NC(C(=O)NC(Cc2ccccc2)CC(O)C(Cc2ccccc2)NC(=O)OCc2cncs2)C(C)C)cs1 (stereo not drawn)	12.7
CCCC(=NOCC)C1=C(O)CC(CC(C)SCC)CC1=O (stereo not drawn)	16.1
Cc1ccc(O)c(-n2nc3ccccc3n2)c1	15.2
COC(=O)Nc1nc2ccc(Sc3ccccc3)cc2[nH]1	9.95
COC(=O)C[P+](c1ccccc1)(c1ccccc1)c1ccccc1	7.72
CC[N+](CC)(CC([O-])=Nc1c(C)cccc1C)Cc1ccccc1	7.58
C=C1CC23CCC4C(C)(C(=O)OC5OC(CO)C(O)C(O)C5O)CCCC4(C)C2CCC1(OC1OC(CO)C(O)C(O)C1OC1OC(CO)C(O)C(O)C1O)C3 (stereo not drawn)	8.07

Continued, values first:

LC retention time [min]	Compound
5.22	O=C(O)CCCCC(=O)O
2.38	Cn1cnc2c(=O)[nH]c(=O)[nH]c21
7.04	COCC(C)N(C(=O)CS(=O)(=O)O)c1c(C)csc1C (stereo not drawn)
2.16	CC1(C)CC(O)CC(C)(C)N1CCO
10.8	O=C(O)c1cc(O)c2c(c1)C(=O)c1cccc(O)c1C2=O
4.8	COCCOC(=O)Nc1cccc(N)c1
5.07	O=S(=O)(O)NC1CCCCC1
5.7	CCC(C(=O)O)N1CCCC1=O (stereo not drawn)
9.47	CSc1ccc2c(c1)N(CCC1CCCCN1C)c1ccccc1S2 (stereo not drawn)
4.39	CN1CCCC1=O
8.76	CCCC[P+](CCCC)(CCCC)CC1OCCO1
8.54	Cc1ccc(C(=O)O)cc1
5.02	CC(=O)Nc1ccc(O)cc1
4.09	Nc1nc2c(ncn2C2CC(O)C(CO)O2)c(=O)[nH]1 (stereo not drawn)
12.6	CCCCCCCCN1CCCC1=O
7.48	COc1cc(O)c(C(=O)c2ccccc2)cc1S(=O)(=O)O
5.76	COC(=O)C(Cc1ccccc1)NC(=O)C(N)CC(=O)O (stereo not drawn)
13.1	CCCCC1C(=O)N(c2ccccc2)N(c2ccccc2)C1=O
11	O=C(c1ccccc1)c1ccc(O)cc1O
4.35	O=c1[nH]c(=O)c2ncn(C3OC(CO)C(O)C3O)c2[nH]1 (stereo not drawn)
10.3	CC(=O)C1CCC2C3CCC4=CC(=O)CCC4(C)C3C(O)CC12C (stereo not drawn)
9.54	CCOC(=O)NS(=O)(=O)c1ccc(C)cc1
5.84	CC(NC(CCc1ccccc1)C(=O)O)C(=O)C1CCCN1C(=O)O (stereo not drawn)
11.9	Cc1ccc(C(C)NC(=O)C(NC(=O)OC(C)C)C(C)C)cc1 (stereo not drawn)
11	COC(=O)C(=Cc1ccc(OC)cc1)C(=O)OC

LC retention time [min]	Compound
5.51	Cn1c(=O)c2c(ncn2C)n(C)c1=O
5.57	CCN1CCCC1CNC(=O)c1cc(S(=O)(=O)CC)c(N)cc1OC (stereo not drawn)
2.08	O=C(O)CC(O)(CC(=O)O)C(=O)O
10.4	CCN(CC)C(=O)c1cccc(C)c1
4.27	CCCC[N+]1(C)CCCC1
6.65	CC12CC3CC(C)(C1)CC(N)(C3)C2
6.57	CC1(C)CC(OC(=O)CCCCCCCCC(=O)OC2CC(C)(C)NC(C)(C)C2)CC(C)(C)N1
2.77	CC(Cn1cnc2c(N)ncnc21)OCP(=O)(O)O (stereo not drawn)
13.8	CCC(CCC(C)O)COC(=O)C(C#N)=C(c1ccccc1)c1ccccc1 (stereo not drawn)
2.36	CCC(C)C(N)C(=O)O (stereo not drawn)
7.41	CC(=O)Nc1ccc(S(=O)(=O)Nc2cc(C)on2)cc1
4.82	CC1(C)CCCC(C)(C)N1
4.58	CC(C)NCC(O)c1ccc(NS(C)(=O)=O)cc1 (stereo not drawn)
12.5	CC(=O)C1(O)CCC2C3CC(C)C4=CC(=O)CCC4(C)C3CCC21C (stereo not drawn)
4.62	CC(C)NCC(O)COc1ccc(CC(N)=O)cc1 (stereo not drawn)
8.67	COC(=O)Nc1nc2ccc(C(=O)c3ccccc3)cc2[nH]1
2.92	Nc1nc2c(ncn2COCC(=O)O)c(=O)[nH]1
6.97	CCN(CC)C(=O)c1cccc(CO)c1
5.02	c1ccc(C2CN3CCSC3=N2)cc1 (stereo not drawn)
8.32	NC(=O)N1c2ccccc2CC(=O)c2ccccc21
7.88	COC(=O)c1cccc(O)c1
10.1	CCOC(=O)Nc1ccc(C)c(NC(=O)OCC)c1
5.13	CC(C)(C)NCC(O)COc1cccc2c1CC(O)C(O)C2 (stereo not drawn)
4.88	CCCC1CC(C(=O)NC(C(C)O)C2OC(SC)C(O)C(O)C2O)N(C)C1 (stereo not drawn)
